The source of these data is paper PMC9667588, “Synthesis and bioactivities evaluation of quinazolin-4(3H)-one derivatives as α-glucosidase inhibitors” (BMC Chemistry, 2022).

Entries after “also recorded” stand apart in the source; their conditions may differ.

What is called melting point is the temperature, or range, at which the solid turns liquid.

T1 sequence (P53341 whole entry): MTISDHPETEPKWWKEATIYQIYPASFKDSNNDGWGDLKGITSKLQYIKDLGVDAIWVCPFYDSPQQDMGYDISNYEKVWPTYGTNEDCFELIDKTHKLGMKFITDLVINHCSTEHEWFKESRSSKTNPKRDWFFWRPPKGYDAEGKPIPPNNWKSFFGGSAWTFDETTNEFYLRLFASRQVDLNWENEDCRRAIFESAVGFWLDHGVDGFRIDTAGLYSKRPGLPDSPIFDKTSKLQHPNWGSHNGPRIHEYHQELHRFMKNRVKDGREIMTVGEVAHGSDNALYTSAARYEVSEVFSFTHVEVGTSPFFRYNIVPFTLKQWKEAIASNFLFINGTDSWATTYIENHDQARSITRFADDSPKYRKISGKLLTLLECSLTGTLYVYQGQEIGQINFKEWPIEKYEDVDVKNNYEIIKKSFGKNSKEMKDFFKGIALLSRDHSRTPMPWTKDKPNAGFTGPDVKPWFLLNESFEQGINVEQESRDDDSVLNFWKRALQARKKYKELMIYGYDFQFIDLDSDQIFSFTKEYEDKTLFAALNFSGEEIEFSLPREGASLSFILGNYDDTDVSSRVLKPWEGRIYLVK

The first data set addresses T1, α-glucosidase (Saccharomyces cerevisiae, UniProt P53341).
Assay: not given
The conditions noted are these: cited from earlier work.
As to `O=C(Cn1cc(COc2ccc(-c3nc4ccccc4c(=O)[nH]3)cc2)nn1)Nc1ccccc1` [C], the type of inhibition result is “competitive”.

A further data set has as its target T1, α-glucosidase. The experiment in a line: α-glucosidase inhibition assay. It is filed as biochemical.
Conditions: not given
Regarding `COc1ccc(NC(=O)COc2ccc(-c3nc4ccccc4c(=O)[nH]3)cc2OC)cc1` [Compound 7l, 2-(2-methoxy-4-(4-oxo-3,4-dihydroquinazolin-2-yl)phenoxy)-N-(4-methoxyphenyl)acetamide], the “activity against α-glucosidase under the tested concentration” value is “did not show any activity”. Still for that read-out and setting: in the case of `COc1cc(-c2nc3ccccc3c(=O)[nH]2)ccc1OCC(=O)Nc1ccc(O)cc1` [Compound 7m, N-(4-hydroxyphenyl)-2-(2-methoxy-4-(4-oxo-3,4-dihydroquinazolin-2-yl)phenoxy)acetamide] it was “did not show any activity”; in that of `COc1cc(-c2nc3ccccc3c(=O)[nH]2)ccc1OCC(=O)Nc1ccc([N+](=O)[O-])cc1` [Compound 7n, 2-(2-methoxy-4-(4-oxo-3,4-dihydroquinazolin-2-yl)phenoxy)-N-(4-nitrophenyl)acetamide], “did not show any activity”.

In another data set the test system is α-amylase.
Assay: not given
Details: method as in doi:10.1016/j.molstruc.2022.133650. The conditions noted are these: at 108 μM; cited from earlier work.
On to `COc1cc(-c2nc3ccccc3[nH]2)ccc1OCC(=O)Nc1ccc(F)cc1` [F], for which the “% inhibition against α-amylase” value is 45.0 ± 0.8%.

In another data set the target is T1, α-glucosidase. In words: Enzyme kinetic studies (Lineweaver–Burk plot, secondary plot). It is filed as biochemical. The conditions noted are these: Km increased, Vmax unchanged. How it is done: A Lineweaver–Burk plot was generated to identify the type of inhibition and the Michaelis–Menten constant (Km) value was determined from the plot between the reciprocal of the substrate concentration (1/[S]) and reciprocal of enzyme rate (1/V) over various inhibitor concentrations. The experimental inhibitor constant (Ki) value was constructed by secondary plots of the inhibitor concentration [I] versus Km.
Regarding `COc1cc(-c2nc3ccccc3c(=O)[nH]2)ccc1OCC(=O)Nc1ccccc1F` [Compound 7b, N-(2-fluorophenyl)-2-(2-methoxy-4-(4-oxo-3,4-dihydroquinazolin-2-yl)phenoxy)acetamide], the type of inhibition result is “competitive type; also recorded: competitive inhibition; also recorded: competitive inhibitor”.

For another data set, the system named is breast cancer cell line MCF-7.
Assay: not given
Also on record: method as in PMID 30366316. The conditions noted are these: cited from earlier work.
With `O=c1c2ccccc2nc(SCc2cn(Cc3ccc(Br)cc3)nn2)n1CCc1ccccc1` [B], the “toxicity against breast cancer cell line MCF-7” value is “no toxicity”.

Test system in the next data set: not given
Assay: not given
Conditions: not given
Turning to `COc1cc(-c2nc3ccccc3c(=O)[nH]2)ccc1OCC(=O)Nc1ccccc1` [Compound 7a, 2-(2-methoxy-4-(4-oxo-3,4-dihydroquinazolin-2-yl)phenoxy)-N-phenylacetamide], the melting point lay in the range of 192 to 194 °C. Compound `COc1cc(-c2nc3ccccc3c(=O)[nH]2)ccc1OCC(=O)Nc1ccccc1F` [Compound 7b, N-(2-fluorophenyl)-2-(2-methoxy-4-(4-oxo-3,4-dihydroquinazolin-2-yl)phenoxy)acetamide] displayed a melting point of 222 to 225 °C. Compound `COc1cc(-c2nc3ccccc3c(=O)[nH]2)ccc1OCC(=O)Nc1ccc(F)cc1` [Compound 7c, N-(4-fluorophenyl)-2-(2-methoxy-4-(4-oxo-3,4-dihydroquinazolin-2-yl)phenoxy)acetamide] gave a melting point of 216 to 218 °C. Still for that read-out and setting: the same measure for `COc1cc(-c2nc3ccccc3c(=O)[nH]2)ccc1OCC(=O)Nc1ccccc1Cl` [Compound 7d, N-(2-chlorophenyl)-2-(2-methoxy-4-(4-oxo-3,4-dihydroquinazolin-2-yl)phenoxy)acetamide]: 207 to 209 °C. Same read-out and setting: the same measure for `COc1cc(-c2nc3ccccc3c(=O)[nH]2)ccc1OCC(=O)Nc1cccc(Cl)c1` [Compound 7e, N-(3-chlorophenyl)-2-(2-methoxy-4-(4-oxo-3,4-dihydroquinazolin-2-yl)phenoxy)acetamide]: 203 to 205 °C; for `COc1cc(-c2nc3ccccc3c(=O)[nH]2)ccc1OCC(=O)Nc1ccc(Cl)cc1` [Compound 7f, N-(4-chlorophenyl)-2-(2-methoxy-4-(4-oxo-3,4-dihydroquinazolin-2-yl)phenoxy)acetamide]: 211 to 213 °C; for `COc1cc(-c2nc3ccccc3c(=O)[nH]2)ccc1OCC(=O)Nc1ccc(Br)cc1` [Compound 7g, N-(4-bromophenyl)-2-(2-methoxy-4-(4-oxo-3,4-dihydroquinazolin-2-yl)phenoxy)acetamide]: 203 to 205 °C. Same read-out and setting: in the case of `COc1cc(-c2nc3ccccc3c(=O)[nH]2)ccc1OCC(=O)Nc1ccccc1C` [Compound 7h, 2-(2-methoxy-4-(4-oxo-3,4-dihydroquinazolin-2-yl)phenoxy)-N-(o-tolyl)acetamide] it was 196 to 198 °C; in that of `COc1cc(-c2nc3ccccc3c(=O)[nH]2)ccc1OCC(=O)Nc1ccc(C)cc1` [Compound 7i, 2-(2-methoxy-4-(4-oxo-3,4-dihydroquinazolin-2-yl)phenoxy)-N-(p-tolyl)acetamide], 199 to 201 °C.

Regarding `COc1cc(-c2nc3ccccc3c(=O)[nH]2)ccc1OCC(=O)Nc1c(C)cccc1C` [Compound 7j, N-(2,6-dimethylphenyl)-2-(2-methoxy-4-(4-oxo-3,4-dihydroquinazolin-2-yl)phenoxy)acetamide], the melting point is 215 to 217 °C. `CCc1ccc(NC(=O)COc2ccc(-c3nc4ccccc4c(=O)[nH]3)cc2OC)cc1` [Compound 7k, N-(4-ethylphenyl)-2-(2-methoxy-4-(4-oxo-3,4-dihydroquinazolin-2-yl)phenoxy)acetamide] gave a melting point of 195 to 197 °C. The same measure, in the same setting: in the case of `COc1ccc(NC(=O)COc2ccc(-c3nc4ccccc4c(=O)[nH]3)cc2OC)cc1` [Compound 7l, 2-(2-methoxy-4-(4-oxo-3,4-dihydroquinazolin-2-yl)phenoxy)-N-(4-methoxyphenyl)acetamide] it was 205 to 207 °C; in that of `COc1cc(-c2nc3ccccc3c(=O)[nH]2)ccc1OCC(=O)Nc1ccc2ccccc2c1` [Compound 7o, 2-(2-methoxy-4-(4-oxo-3,4-dihydroquinazolin-2-yl)phenoxy)-N-(naphthalen-2-yl)acetamide], 217 to 219 °C.

For the compound `COc1cc(-c2nc3ccccc3c(=O)[nH]2)ccc1OCC(=O)NCc1ccc(C)cc1` [Compound 7p, 2-(2-methoxy-4-(4-oxo-3,4-dihydroquinazolin-2-yl)phenoxy)-N-(4-methylbenzyl)acetamide], the melting point fell in the range of 191 to 193 °C. Still for that read-out and setting: the same measure for `COc1cc(-c2nc3ccccc3c(=O)[nH]2)ccc1OCC(=O)NCc1ccc(F)cc1` [Compound 7q, N-(4-fluorobenzyl)-2-(2-methoxy-4-(4-oxo-3,4-dihydroquinazolin-2-yl)phenoxy)acetamide]: 224 to 226 °C; for `COc1cc(-c2nc3ccccc3c(=O)[nH]2)ccc1OCC(=O)NCc1ccccc1` [Compound 7r, N-benzyl-2-(2-methoxy-4-(4-oxo-3,4-dihydroquinazolin-2-yl)phenoxy)acetamide]: 194 to 196 °C.
